Laboratory results taken from patent publication US7517874B2 (priority 2007, dated 2009).
Read-outs that look alike come from different tables or passages of the source.

What was measured:
[1] = target: human CB1 receptor (hCB1) (Homo sapiens, UniProt P21554); experiment: cell-based; type: cell-based; conditions: for +/− HCB1: agonist or inverse agonist at hCB1
Outline: (§1)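 First, cells in IBMX-containing HEPES-buffered HBSS are raised to elevated cAMP with 2-8 μM NKH-477 for 30 min. Data are normalised to the forskolin and forskolin + 1 μM CP55,940 controls.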

[2] = target: T1, rat CB2 receptor (rCB2) (Rattus norvegicus, UniProt Q9QZN9); experiment: cell-based; type: cell-based; conditions: for +/− RCB2: agonist or inverse agonist at rCB2
T1 sequence (Q9QZN9 1-360): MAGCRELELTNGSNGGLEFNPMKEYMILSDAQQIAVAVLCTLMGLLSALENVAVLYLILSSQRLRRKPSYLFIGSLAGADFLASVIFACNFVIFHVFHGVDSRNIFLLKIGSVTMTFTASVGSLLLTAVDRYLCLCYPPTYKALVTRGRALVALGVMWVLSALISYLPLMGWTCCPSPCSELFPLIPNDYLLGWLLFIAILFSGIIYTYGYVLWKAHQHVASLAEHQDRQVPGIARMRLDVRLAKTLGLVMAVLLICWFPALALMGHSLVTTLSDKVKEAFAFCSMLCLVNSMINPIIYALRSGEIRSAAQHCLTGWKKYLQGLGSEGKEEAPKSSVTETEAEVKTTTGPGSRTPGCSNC
Outline: as §1

[3] = groups >100 nM-10 μM and >10 μM, cAMP, CHO-K1 hCB1, read-out: EC50 HCB1

Sequence of human CB1 receptor (hCB1) (P21554 whole entry): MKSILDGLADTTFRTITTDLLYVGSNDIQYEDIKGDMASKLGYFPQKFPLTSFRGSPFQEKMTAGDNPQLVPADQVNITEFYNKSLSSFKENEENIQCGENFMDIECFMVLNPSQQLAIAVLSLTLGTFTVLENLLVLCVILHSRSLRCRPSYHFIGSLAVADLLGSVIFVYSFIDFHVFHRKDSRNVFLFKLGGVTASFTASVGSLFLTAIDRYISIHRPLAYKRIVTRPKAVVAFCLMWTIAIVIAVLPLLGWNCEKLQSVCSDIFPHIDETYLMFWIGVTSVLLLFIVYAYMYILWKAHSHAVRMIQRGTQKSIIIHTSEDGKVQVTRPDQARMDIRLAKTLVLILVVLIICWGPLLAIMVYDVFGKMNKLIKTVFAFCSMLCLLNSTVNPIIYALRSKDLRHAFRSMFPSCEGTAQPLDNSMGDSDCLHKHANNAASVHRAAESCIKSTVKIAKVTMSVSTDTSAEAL

Compound: CNC(=O)[C@@H](NC(=O)c1nc(-c2ccc(C)cc2F)n2c1CNCCC2)C(C)(C)C [Compound 316, (S)-N-(3,3-dimethyl-1-(methylamino)-1-oxobutan-2-yl)-3-(2-fluoro-4-methylphenyl)-6,7,8,9-tetrahydro-5H-imidazo[1,5-a][1,4]diazepine-1-carboxamide]
- EC50 [1]: > 10000 nM
- +/− RCB2 [2]: −

Compound: CNC(=O)[C@@H](NC(=O)c1nc(-c2cccc(-c3ccccc3)c2)n2c1CN(C)CCC2)C(C)(C)C [Compound 383, (S)-3-(biphenyl-3-yl)-N-(3,3-dimethyl-1-(methylamino)-1-oxobutan-2-yl)-8-methyl-6,7,8,9-tetrahydro-5H-imidazo[1,5-a][1,4]diazepine-1-carboxamide]
- EC50 [1]: > 10000 nM
- +/− RCB2 [2]: −

Compound: CN1CCn2c(-c3ccccc3)nc(C(=O)CC(C)(C)C)c2C1 [Compound 292, 3,3-dimethyl-1-(7-methyl-3-phenyl-5,6,7,8-tetrahydroimidazo[1,5-a]pyrazin-1-yl)butan-1-one]
- EC50 [1, 3]: > 10000 nM
- +/− RCB2 [2]: −

Compound: C[C@H](NC(=O)c1nc(-c2ccccc2)n2c1CN(C(=O)C1CC1)CC2)c1ccccc1 [Compound 124, (S)-7-(cyclopropanecarbonyl)-3-phenyl-N-(1-phenylethyl)-5,6,7,8-tetrahydroimidazo[1,5-a]pyrazine-1-carboxamide]
- EC50 [1]: > 10000 nM
- +/− RCB2 [2]: −

Compound: CNC(=O)[C@@H](NC(=O)c1nc(-c2ccc(C)cc2F)n2c1CN(CC1CC1)CCC2)C(C)(C)C [Compound 323, (S)-8-(cyclopropylmethyl)-N-(3,3-dimethyl-1-(methylamino)-1-oxobutan-2-yl)-3-(2-fluoro-4-methylphenyl)-6,7,8,9-tetrahydro-5H-imidazo[1,5-a][1,4]diazepine-1-carboxamide]
- EC50 [1]: > 10000 nM
- +/− RCB2 [2]: −

Compound: CNC(=O)[C@@H](NC(=O)c1nc(-c2cccc(OC(F)(F)F)c2)n2c1CN(C)CCC2)C(C)(C)C [Compound 338, (S)-N-(3,3-dimethyl-1-(methylamino)-1-oxobutan-2-yl)-8-methyl-3-(3-(trifluoromethoxy)phenyl)-6,7,8,9-tetrahydro-5H-imidazo[1,5-a][1,4]diazepine-1-carboxamide]
- EC50 [1]: > 10000 nM
- EC50 [2]: > 10000 nM

Compound: CNC(=O)[C@@H](NC(=O)c1nc(-c2ccncc2F)n2c1CN(C)CCC2)C(C)(C)C [Compound 451, (S)-N-(3,3-dimethyl-1-(methylamino)-1-oxobutan-2-yl)-3-(3-fluoropyridin-4-yl)-8-methyl-6,7,8,9-tetrahydro-5H-imidazo[1,5-a][1,4]diazepine-1-carboxamide]
- +/− HCB1 [1]: +
- +/− RCB2 [2]: +

Compound: CC(C)(C)[C@H](CO)NC(=O)c1nc(-c2ccccc2)n2c1CNCC2 [Compound 23, (R)-N-(1-hydroxy-3,3-dimethylbutan-2-yl)-3-phenyl-5,6,7,8-tetrahydroimidazo[1,5-a]pyrazine-1-carboxamide]
- EC50 [1]: > 10000 nM
- +/− RCB2 [2]: +

Compound: CNC(=O)[C@@H](NC(=O)c1nc(-c2ccccc2)n2c1CNCC2)C(C)(C)C [Compound 2, (S)-N-(3,3-dimethyl-1-(methylamino)-1-oxobutan-2-yl)-3-phenyl-5,6,7,8-tetrahydroimidazo[1,5-a]pyrazine-1-carboxamide]
- EC50 [1]: > 10000 nM
- +/− RCB2 [2]: +

Compound: CNC(=O)[C@@H](NC(=O)c1nc(-c2ccccc2)n2c1CN(c1ncccn1)CC2)C(C)(C)C [Compound 298, N-(3,3-dimethyl-1-(methylamino)-1-oxobutan-2-yl)-3-phenyl-7-(pyrimidin-2-yl)-5,6,7,8-tetrahydroimidazo[1,5-a]pyrazine-1-carboxamide]
- +/− HCB1 [1]: +
- +/− RCB2 [2]: +

Compound: CCc1nc(C(=O)N[C@H](C(=O)NC)C(C)(C)C)c2n1CCCN(C)C2 [Compound 492, (S)-N-(3,3-dimethyl-1-(methylamino)-1-oxobutan-2-yl)-3-ethyl-8-methyl-6,7,8,9-tetrahydro-5H-imidazo[1,5-a][1,4]diazepine-1-carboxamide]
- EC50 [1]: > 10000 nM
- +/− RCB2 [2]: −

Compound: COC(=O)N1CCn2c(-c3ccccc3)nc(C(=O)N[C@@H](C)c3ccccc3)c2C1 [Compound 179, (S)-methyl 3-phenyl-1-(1-phenylethylcarbamoyl)-5,6-dihydroimidazo[1,5-a]pyrazine-7(8H)-carboxylate]
- EC50 [1]: > 10000 nM
- +/− RCB2 [2]: −

Compound: CCc1nc(C(=O)N[C@H](C(=O)NC)C(C)(C)C)c2n1CCN(C)C2 [Compound 310, (S)-N-(3,3-dimethyl-1-(methylamino)-1-oxobutan-2-yl)-3-ethyl-7-methyl-5,6,7,8-tetrahydroimidazo[1,5-a]pyrazine-1-carboxamide]
- EC50 [1]: > 10000 nM
- +/− RCB2 [2]: −

Compound: CN1CCCn2c(-c3cc(Cl)c(F)cc3F)nc(C(=O)N[C@@H](CC(C)(C)C)C(N)=O)c2C1 [Compound 591, (S)-N-(1-amino-4,4-dimethyl-1-oxopentan-2-yl)-3-(5-chloro-2,4-difluorophenyl)-8-methyl-6,7,8,9-tetrahydro-5H-imidazo[1,5-a][1,4]diazepine-1-carboxamide]
- +/− HCB1 [1]: +
- +/− RCB2 [2]: +

Compound: CC(C)(C)[C@@H](CO)NC(=O)c1nc(-c2ccccc2)n2c1CN(S(=O)(=O)c1ccccc1)CC2 [Compound 102, (S)-N-(1-hydroxy-3,3-dimethylbutan-2-yl)-3-phenyl-7-(phenylsulfonyl)-5,6,7,8-tetrahydroimidazo[1,5-a]pyrazine-1-carboxamide]
- EC50 [1]: > 10000 nM
- +/− RCB2 [2]: −

Compound: CC(C)NC(=O)N1CCn2c(-c3ccccc3)nc(C(=O)NC3C4(C)CCC(C4)C3(C)C)c2C1 (stereo not shown) [Compound 171, N7-isopropyl-3-phenyl-N1-(1,3,3-trimethylbicyclo[2.2.1]heptan-2-yl)-5,6-dihydroimidazo[1,5-a]pyrazine-1,7(8H)-dicarboxamide]
- EC50 [1]: > 10000 nM
- +/− RCB2 [2]: −

Compound: CNC(=O)[C@@H](NC(=O)c1nc(-c2ccccc2C(F)(F)F)n2c1CN(C)CCC2)C(C)(C)C [Compound 399, (S)-N-(3,3-dimethyl-1-(methylamino)-1-oxobutan-2-yl)-8-methyl-3-(2-(trifluoromethyl)phenyl)-6,7,8,9-tetrahydro-5H-imidazo[1,5-a][1,4]diazepine-1-carboxamide]
- EC50 [1]: > 10000 nM
- +/− RCB2 [2]: +

Compound: O=C(NC1CCCCC1)c1nc(-c2ccccc2)n2c1CN(C(=O)c1ccoc1)CC2 [Compound 138, N-cyclohexyl-7-(furan-3-carbonyl)-3-phenyl-5,6,7,8-tetrahydroimidazo[1,5-a]pyrazine-1-carboxamide]
- EC50 [1, 3]: > 10000 nM
- +/− RCB2 [2]: −

Compound: CC(C)(C)CNC(=O)c1nc(-c2ccccc2)n2c1CNCC2 [Compound 24, N-neopentyl-3-phenyl-5,6,7,8-tetrahydroimidazo[1,5-a]pyrazine-1-carboxamide]
- EC50 [1, 3]: > 10000 nM
- EC50 ([2]; groups >100 nM-10 μM and >10 μM, cAMP, CHO-K1 rCB2, read-out: EC50 RCB2): > 10000 nM

Compound: CNC(=O)[C@@H](NC(=O)c1nc(-c2cc(C)ccc2F)n2c1CN(C)CC2)C(C)(C)C [Compound 251, (S)-N-(3,3-dimethyl-1-(methylamino)-1-oxobutan-2-yl)-3-(2-fluoro-5-methylphenyl)-7-methyl-5,6,7,8-tetrahydroimidazo[1,5-a]pyrazine-1-carboxamide]
- EC50 [1]: > 10000 nM
- +/− RCB2 [2]: −
